The source of these data is paper PMC2783032, “Affinity maturation generates greatly improved xyloglucan-specific carbohydrate binding modules” (BMC Biotechnology, 2009).

Molecules are shown by their SMILES.

Test in all cases: Isothermal titration calorimetry at 25 °C in 20 mM HEPES, pH 8.0, 2 mM CaCl2, 50 uM protein in the cell titrated with oligosaccharide, single-site non-linear regression.
Holding throughout (type): binding
Background: ITC needs no label: the signal is the heat of the interaction.

In one assay the test system is T1, XG-34/1-X.
T1 construct: CBM4-2 domain scaffold, hexahistidine tag (pET22b, E. coli BL21 (DE3))
Here is the method:
(§1) Isothermal titration calorimetry (ITC) measurements were performed at 25°C following standard procedures using a Microcal Omega titration calorimeter (Northampton, MA, USA). XXXG and XLLG (Figure 1) were prepared as previously described. Prior to analysis, the CBM were extensively dialyzed against 20 mM HEPES, pH 8.0 containing 2 mM CaCl2. The same buffer was used to dissolve tamarind seed xyloglucan, XXXG, XLLG and galactose to minimize heats of dilution. 50 μM protein samples were stirred at 300 rpm in a 1.4331 ml reaction cell. Ligands were injected as a single 1 μl aliquot followed by 27 successive 10 μl aliquots at 300 s intervals (2 mM, 7.5 mM or 10 mM XXXG; 1 mM or 5 mM XLLG; 2.5% or 5% w/v xyloglucan; 10 mM galactose). Integrated heat effects were analyzed by non-linear regression using a single-site binding model.

Another assay deals with T2, XG-34 (Rhodothermus marinus, UniProt Q7WTN6, E282H/E322D/F286L/F320H/Q321D/W279Y/Y359F).
T2 construct: CBM4-2 domain scaffold, hexahistidine tag (pET22b, E. coli BL21 (DE3))
As to conditions: read-out: KA (10^3 M^-1). How it is done:
as §1

The test system of a further assay is T3, XG-34/2-VI.
T3 construct: CBM4-2 domain scaffold, hexahistidine tag (pET22b, E. coli BL21 (DE3))
Here is the method: as §1

For the compound `OC[C@H]1OC(O)[C@H](O)[C@@H](O)[C@@H]1O[C@@H]1O[C@H](CO[C@H]2OC[C@@H](O)[C@H](O)[C@H]2O)[C@@H](O[C@@H]2O[C@H](CO[C@H]3OC[C@@H](O)[C@H](O)[C@H]3O)[C@@H](O[C@@H]3O[C@H](CO[C@H]4OC[C@@H](O)[C@H](O)[C@H]4O)[C@@H](O)[C@H](O)[C@H]3O)[C@H](O)[C@H]2O)[C@H](O)[C@H]1O` (stereo partly shown) [XXXG, xyloglucan oligosaccharide XXXG (non-galactosylated heptasaccharide, Xyl3Glc4)], the “KA (10^3 M^-1)” value with XG-34/1-X and in the assay with XG-34/2-VI was “~ ≈ 1 M-1” each time. In addition, at XG-34, the Kd is approximately 1000 µM.

Consider `OC[C@H]1O[C@@H](O[C@H]2[C@@H](OC[C@H]3O[C@@H](O[C@H]4[C@H](O)[C@@H](O)[C@H](O[C@H]5[C@H](O)[C@@H](O)C(O)O[C@@H]5CO)O[C@@H]4CO[C@H]4OC[C@@H](O)[C@H](O)[C@H]4O[C@@H]4O[C@H](CO)[C@H](O)[C@H](O)[C@H]4O)[C@H](O)[C@@H](O)[C@@H]3O[C@@H]3O[C@H](CO[C@H]4OC[C@@H](O)[C@H](O)[C@H]4O)[C@@H](O)[C@H](O)[C@H]3O)OC[C@@H](O)[C@@H]2O)[C@H](O)[C@@H](O)[C@H]1O` (stereo partly shown) [XLLG, xyloglucan oligosaccharide XLLG (galactose-containing nonasaccharide, Gal2Xyl3Glc4)], for which the Kd at XG-34 is approximately 1000 µM.
